Laboratory results from patent US7638535B2, “4-(aminomethyl)-piperidine benzamides as 5HT4-antagonists” (Janssen Pharmaceutica N.V., priority 2003, dated 2009).

Tests used:
h5-HT4b = biological target: T1, h5-HT4b (Homo sapiens, UniProt Q13639); assay: 5HT4 antagonism: [3H]GR113808 binding to membranes of h5-HT4b-HEK 293 clone 9 cells; details: displacement of [3H]GR113808 0.1 nM, h5-HT4b-HEK 293 membranes, 30 min at 25° C.; read-out: pIC50 (5HT4 antagonistic data) (converted)
T1 construct: expressed in transfected cells; host or cells: HEK 293 (clone 9), membrane preparation
Method in brief: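 Membranes from h5-HT4b-HEK 293 clone 9 cells were incubated with [3H]GR113808 (0.1 nM as added) in 50 mM HEPES-NaOH pH 7.4 for 30 min at 25 °C. Non-specific binding was defined with a 5-HT4 agonist. Bound radioligand was separated by filtration over PEI-soaked GF/B filters.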

[1] = Metabolic stability: % metabolism after 60 minutes incubation with active liver microsomes; type: in vitro ADME; details: compound 5 μM, microsomes 1 mg/ml, NADPH-generating system, 60 minutes at 37 degrees Celsius
Procedure: Sub-cellular tissue preparations were made according to Gorrod et al. (Xenobiotica 5:453-462, 1975) by centrifugal separation after mechanical homogenization of tissue. Liver tissue was rinsed in ice-cold 0.1 M Tris-HCl (pH 7.4) buffer to wash excess blood. Tissue was then blotted dry, weighed and chopped coarsely using surgical scissors. The tissue pieces were homogenized in 3 volumes of ice-cold 0.1 M phosphate buffer (pH 7.4).
Tissue homogenates were centrifuged at 9000×g for 20 minutes at 4° C. The resulting supernatant was stored at −80° C. and is designated ‘S9’.
The S9 fraction can be further centrifuged at 100.000×g for 60 minutes (4° C.). The resulting supernatant was carefully aspirated, aliquoted and designated ‘cytosol’. The pellet was re-suspended in 0.1 M phosphate buffer (pH 7.4) in a final volume of 1 ml per 0.5 g original tissue weight and designated ‘microsomes’.
All sub-cellular fractions were aliquoted, immediately frozen in liquid nitrogen and stored at −80° C. until use.
For the samples to be tested, the incubation mixture contained PBS (0.1M), compound (5 μM), microsomes (1 mg/ml) and a NADPH-generating system (0.8 mM glucose-6-phosphate, 0.8 mM magnesium chloride and 0.8 Units of glucose-6-phosphate dehydrogenase). Control samples contained the same material but the microsomes were replaced by heat inactivated (10 minutes at 95 degrees Celsius) microsomes. Recovery of the compounds in the control samples was always 100%.
The mixtures were preincubated for 5 minutes at 37 degrees Celsius. The reaction was started at time point zero (t=0) by addition of 0.8 mM NADP and the samples were incubated for 60 minutes (t=60). The reaction was terminated by the addition of 2 volumes of DMSO. Then the samples were centrifuged for 10 minutes at 900×g and the supernatants were stored at room temperature for no longer as 24 hours before analysis. All incubations were performed in duplo. Analysis of the supernatants was performed with LC-MS analysis. Elution of the samples was performed on a Xterra MS C18 (50×4.6 mm, 5 μm, Waters, US). An Alliance 2790 (Supplier: Waters, US) HPLC system was used. Elution was with buffer A (25 mM ammoniumacetate (pH 5.2) in H2O/acetonitrile (95/5)), solvent B being acetonitrile and solvent C methanol at a flow rate of 2.4 ml/min. The gradient employed was increasing the organic phase concentration from 0% over 50% B and 50% C in 5 min up to 100% B in 1 minute in a linear fashion and organic phase concentration was kept stationary for an additional 1.5 minutes. Total injection volume of the samples was 25 μl.
A Quatro triple quadrupole mass spectrometer fitted with and ESP source was used as detector. The source and the desolvation temperature were set at 120 and 350° C. respectively and nitrogen was used as nebuliser and drying gas. Data were acquired in positive scan mode (single ion reaction). Cone voltage was set at 10 V and the dwell time was 1 second.
Metabolic stability was expressed as % metabolism of the compound after 60 minutes (equation given as example) of incubation in the presence of active microsomes (E(act))

T1 sequence (Q13639 whole entry): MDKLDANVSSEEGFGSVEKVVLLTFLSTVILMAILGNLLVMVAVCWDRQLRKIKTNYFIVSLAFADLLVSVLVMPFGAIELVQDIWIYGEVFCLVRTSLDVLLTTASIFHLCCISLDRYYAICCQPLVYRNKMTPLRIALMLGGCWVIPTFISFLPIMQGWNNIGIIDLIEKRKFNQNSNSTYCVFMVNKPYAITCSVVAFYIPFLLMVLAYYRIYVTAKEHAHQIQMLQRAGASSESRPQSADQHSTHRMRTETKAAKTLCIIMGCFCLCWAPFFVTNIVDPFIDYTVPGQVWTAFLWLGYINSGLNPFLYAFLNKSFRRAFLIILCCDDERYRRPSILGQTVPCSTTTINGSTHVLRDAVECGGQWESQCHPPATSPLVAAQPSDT

melting point | IC50 (h5-HT4b) | % metabolised compound (compounds of present invention) [1] | SMILES
108 °C | 0.955 nM | 15% | COCCCN1CC[C@@H](CNC(=O)c2cc(C)cc3c2OCCCO3)[C@H](O)C1 [compound 200]
135 °C | 186 nM | – | CNc1cc2c(c(C(=O)NC[C@@H]3CCN(CCOC)C[C@H]3O)c1)OCCCO2 [compound 33]
106 to 108 °C | 19.1 nM | – | CNc1cc(C(=O)NC[C@@H]2CCN(CCCOC)C[C@H]2O)c2c(c1Cl)OCCO2 [compound 26]
174 °C | 49 nM | – | COCCCCN1CC[C@@H](CNC(=O)c2cc(N)cc3c2OCCCO3)[C@H](O)C1 [compound 1]
126 °C | 126 nM | – | CNc1cc2c(c(C(=O)NC[C@@H]3CCN(CCCOC)C[C@H]3O)c1)OCCCO2 [compound 113]
240 °C | 617 nM | – | CNc1cc2c(c(C(=O)NC[C@@H]3CCN(CCCC(=O)O)C[C@H]3O)c1)OCCO2 [compound 16]
150 °C | 525 nM | – | CNc1cc2c(c(C(=O)NC[C@@H]3CCN(CCCO)C[C@H]3O)c1)OCCCO2 [compound 2]
134 °C | 1.69 nM | – | Cc1cc2c(c(C(=O)NC[C@@H]3CCN(CCCCNS(C)(=O)=O)C[C@H]3O)c1)OCCCO2 [compound 193]

Further lines, the molecule ahead of its results:

SMILES | melting point | IC50 (h5-HT4b) | % metabolised compound (compounds of present invention) [1]
CCCCN1CC[C@@H](CNC(=O)c2cc(N)cc3c2OCCO3)[C@H](O)C1 [compound 107] | > 160 °C | 5.5 nM | –
CS(=O)(=O)NCCN1CC[C@@H](CNC(=O)c2cc(N)c(Cl)c3c2OCCO3)[C@H](O)C1 [compound 63] | 180 °C | 69.2 nM | –
CC(=O)CCCN1CC[C@@H](CNC(=O)c2cc(N)c(Cl)c3c2OCCO3)[C@H](O)C1 [compound 44] | 130 °C | 22.9 nM | –
CCCCN1CC[C@@H](CNC(=O)c2cc(N)c(Cl)c3c2OCCO3)[C@H](O)C1 [compound 11] | > 110 °C | 5.75 nM | –
Cc1cc2c(c(C(=O)NC[C@@H]3CCN(CCCC(=O)N4CCN(C)CC4)C[C@H]3O)c1)OCCCO2 [compound 238] | > 112 °C | 0.851 nM | –
Cc1nccnc1NCCN1CC[C@@H](CNC(=O)c2cc(N)c(Cl)c3c2OCCO3)[C@H](O)C1 [compound 68] | 100 °C | 30.2 nM | –
